Assay results taken from the supplement of paper PMC10307832.

How the values were obtained:
Test in all cases: relative viability (nuclei count vs DMSO), 5 days (fraction); higher = more cells survive
[1] = compound: CC(C)C[C@@H](C(=O)N[C@H](C(=O)OC1CCCC1)c1ccccc1)[C@H](O)C(=O)NO [Tosedostat] + Nc1nc2[nH]cc(CCc3ccc(C(=O)N[C@@H](CCC(=O)O)C(=O)O)cc3)c2c(=O)[nH]1 [Pemetrexed] (partner 0.2 µM)
Summary of the method: (§1)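 Relative viability is defined as nuclei in treated wells over nuclei in vehicle wells. Duplicate plates were run and medians reported. Lung cancer cell lines in 1536-well plates were dosed by pin tool one day after seeding, with one drug or with a fixed anchor-drug dose plus five library-drug doses (not always all listed) in √10 steps, and nuclei were counted after 5 days.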

[2] = compound: CC1=NN=C(O1)C2=NN=C(C=C2)N3CCC(CC3)OC4=C(C=CC(=C4)F)Cl + COc1cccc2cc(-c3nc([C@H]4CC[C@H](C(=O)O)CC4)n4ncnc(N)c34)[nH]c12 [OSI-027] (partner 0.5 µM)
Summary of the method: as §1

[3] = compound: CC1=NN=C(O1)C2=NN=C(C=C2)N3CCC(CC3)OC4=C(C=CC(=C4)F)Cl + Nc1ncn([C@H]2C[C@H](O)[C@@H](CO)O2)c(=O)n1 [Decitabine] (partner 2 µM)
Summary of the method: as §1

[4] = compound: CC1=NN=C(O1)C2=NN=C(C=C2)N3CCC(CC3)OC4=C(C=CC(=C4)F)Cl + O=C(c1cc(Cc2n[nH]c(=O)c3ccccc23)ccc1F)N1CCN(C(=O)C2CC2)CC1 [Olaparib] (partner 8 µM)
Summary of the method: as §1

Cell Line	relative viability ([1]; first compound 0.02 µM)	relative viability ([1]; first compound 0.06325 µM)	relative viability ([1]; first compound 0.2 µM)	relative viability ([1]; first compound 0.6325 µM)	relative viability ([1]; first compound 2 µM)	relative viability ([2]; first compound 0.253 µM)	relative viability ([2]; first compound 0.8 µM)	relative viability ([2]; first compound 2.53 µM)	relative viability ([2]; first compound 8 µM)	relative viability ([3]; first compound 0.253 µM)	relative viability ([3]; first compound 0.8 µM)	relative viability ([3]; first compound 2.53 µM)	relative viability ([3]; first compound 8 µM)	relative viability ([4]; first compound 0.253 µM)	relative viability ([4]; first compound 0.8 µM)	relative viability ([4]; first compound 2.53 µM)	relative viability ([4]; first compound 8 µM)
NCI-H2087	0.682	0.754	0.709	0.727	0.612	0.641	0.422	0.422	0.3	0.238	0.265	0.268	0.271	0.502	0.34	0.485	0.425
NCI-H1650	0.416	0.392	0.413	0.475	0.526		0.472	0.626	0.615	0.338	0.402	0.387	0.392	0.516	0.645	0.642	0.597
NCI-H322M	0.61	0.628	0.596	0.666	0.652	0.513	0.492	0.636	0.516	0.812	0.709	0.682	0.643	0.746	0.724	0.817	0.732
HCC-366	0.194	0.183	0.285	0.351	0.317	0.32	0.399	0.393	0.407	0.242	0.207	0.292	0.252	0.117	0.139	0.258	0.157
EMC-BAC-2	0.453	0.463	0.582	0.626	0.655	0.441	0.382	0.354	0.417	0.903	0.837	0.957	0.794	0.376	0.414	0.457	0.441
NCI-H460	0.0658	0.062	0.0697	0.0606	0.0547	0.319	0.302	0.137	0.0418	0.164	0.167	0.201	0.166	0.15	0.155	0.199	0.198
NCI-H358	0.173	0.2	0.164	0.143	0.161	0.635	0.461	0.561	0.514	0.19	0.212	0.197	0.181	0.296	0.275	0.321	0.26
NCI-H1944	0.626	0.656	0.84	0.619	0.819	0.36	0.379	0.441	0.425	0.306	0.288	0.321	0.309	0.289	0.337	0.359	0.344
NCI-H2342	0.755	0.776	0.846	0.79	0.728	0.57	0.531	0.515	0.522	0.579	0.552	0.528	0.5	0.305	0.309	0.369	0.363
EPLC-272H	0.47	0.269	0.306	0.241	0.142	0.283	0.248	0.26	0.298	0.361	0.366	0.4	0.374	0.744	0.742	0.758	0.657
NCI-H2023	0.22	0.23	0.292	0.285	0.212	0.33	0.35	0.35	0.314	0.191	0.185	0.186	0.176	0.311	0.274	0.307	0.235
NCI-H838	0.275	0.254	0.255	0.299	0.29	0.37	0.394	0.396	0.331	0.467	0.463	0.442	0.451	0.536	0.595	0.637	0.591
NCI-H647	0.178	0.163	0.167	0.196	0.179	0.516	0.423	0.453	0.207	0.32	0.289	0.275	0.223	0.232	0.157	0.173	0.0657
NCI-H1437	0.297	0.353	0.335	0.354	0.391	0.697	0.742	0.795	0.614	0.376	0.383	0.399	0.368	0.416	0.516	0.449	0.403
NCI-H3122	0.206	0.213	0.21	0.312	0.325	0.359	0.384	0.418	0.348	0.376	0.31	0.412	0.281	0.283	0.273	0.336	0.293
NCI-H522	1.14	1.02	1.06	1.06	0.979	0.725	0.659	0.699	0.693	0.629	0.624	0.573	0.65	0.694	0.566	0.664	0.686
PC-14	0.125	0.135	0.157	0.124	0.09	0.818	0.572	0.721	0.643	0.19	0.226	0.177	0.23	0.257	0.226	0.317	0.266
SK-MES-1	1.01	1	1.11	1.14	0.993	0.558	0.583	0.601	0.487	0.369	0.388	0.356	0.326	0.497	0.507	0.538	0.507
